Results from patent US20100267561A1, “HERBICIDAL PYRIDAZINONE DERIVATIVES” (priority 2007, published 2010).

Legend:
Format in all cases: in vivo
[1] = system: barnyardgrass (Echinochloa crus-galli); assay: Test B flooded paddy test plant response
Procedure, shortened: (§1)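 2-leaf plants; pots flooded 3 cm above soil; compound added to paddy water; depth maintained. Greenhouse 13–15 d. Visual rating vs controls, 0 (no effect) to 100 (complete control); dash = no result.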

rice (Oryza sativa) = assay: Test B flooded paddy test plant response
Procedure, shortened: as §1

[2] = system: morningglory (Ipomoea coccinea); assay: Test B pre-/postemergence plant response; settings: for Morningglory plant response rating: 8 g ai/ha
Procedure, shortened: (§2)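 Preemergence and postemergence (plants 2-18 cm, 1- to 4-leaf stage) applications used test chemicals in a non-phytotoxic solvent with surfactant. Plants were held in a greenhouse 13 to 15 days, then rated visually against controls on a 0-100 scale (0 no effect, 100 complete control).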

[3] = system: common ragweed (Ambrosia elation); assay: Test B pre-/postemergence plant response; settings: for Ragweed plant response rating: 8 g ai/ha
Procedure, shortened: as §2

wild oat (Avena fatua) = assay: Test B pre-/postemergence plant response; settings: for Oat, Wild plant response rating: 8 g ai/ha
Procedure, shortened: as §2

[4] = system: catchweed bedstraw (Galium aparine); assay: Test B pre-/postemergence plant response; settings: Preemergence
Procedure, shortened: as §2

[5] = system: common (oilseed) sunflower (Helianthus annuus); assay: Test B pre-/postemergence plant response; settings: Preemergence
Procedure, shortened: as §2

[6] = system: eastern black (E.B.) nightshade (Solanum ptycanthum); assay: Test B pre-/postemergence plant response; settings: Preemergence
Procedure, shortened: as §2

[7] = system: Italian ryegrass (Lolium multiflorum); assay: Test B pre-/postemergence plant response; settings: for Ryegrass, Italian plant response rating: 8 g ai/ha
Procedure, shortened: as §2

[8] = system: pigweed (Amaranthus retroflexus); assay: Test B pre-/postemergence plant response; settings: for Pigweed plant response rating: 8 g ai/ha
Procedure, shortened: as §2

[9] = system: johnsongrass (Sorghum halepense); assay: Test B pre-/postemergence plant response; settings: for Johnsongrass plant response rating: 8 g ai/ha
Procedure, shortened: as §2

[10] = system: blackgrass (Alopecurus myosuroides); assay: Test B pre-/postemergence plant response; settings: for Blackgrass plant response rating: 8 g ai/ha
Procedure, shortened: as §2

[11] = system: large crabgrass (Digitaria sanguinalis); assay: Test B pre-/postemergence plant response; settings: for Crabgrass, Large plant response rating: 8 g ai/ha
Procedure, shortened: as §2

[12] = system: downy bromegrass (Bromus tectorum); assay: Test B pre-/postemergence plant response; settings: for Bromegrass, Downy plant response rating: 8 g ai/ha
Procedure, shortened: as §2

[13] = Flood (flooded paddy test), 62 g ai/ha, scale 0 to 100, 0 no effect, 100 complete control
[14] = Flood (flooded paddy test), 125 g ai/ha, scale 0 to 100, 0 no effect, 100 complete control
[15] = Flood (flooded paddy test), 250 g ai/ha, scale 0 to 100, 0 no effect, 100 complete control
[16] = Flood, 31 g ai/ha, scale 0 to 100
[17] = Postemergence, 16 g ai/ha, scale 0 to 100
[18] = Postemergence, 31 g ai/ha, scale 0 to 100
[19] = Postemergence, 62 g ai/ha, scale 0 to 100, 0 no effect, 100 complete control
[20] = Preemergence, 16 g ai/ha, scale 0 to 100 (0 no effect, 100 complete control)
[21] = Preemergence, 31 g ai/ha, scale 0 to 100 (0 no effect, 100 complete control)
[22] = Preemergence, 62 g ai/ha, scale 0 to 100
[23] = 16 g ai/ha, scale 0 to 100 (0 no effect, 100 complete control)
[24] = 31 g ai/ha, scale 0 to 100 (0 no effect, 100 complete control)
[25] = Preemergence, 31 g ai/ha, 0 to 100 scale, 0 no effect, 100 complete control

**Q.** `Cc1cc(-c2ccc(Cl)cc2)nn1-c1c(OC(=O)c2ccccc2)cnn(C)c1=O` [Compound 48] was tested. Which “Plant response rating, Barnyardgrass” value [1, 13] did it give?
**A.** 0

**Q.** What about the “Plant response rating, Barnyardgrass” value [1, 14] of the same compound?
**A.** 0

**Q.** What about the “Plant response rating, Barnyardgrass” value [1, 15] of the same compound?
**A.** 30

**Q.** What about the “Plant response rating, Barnyardgrass” value [1, 16] of the same compound?
**A.** 0

**Q.** What about the “Plant response rating, Rice” value (rice (Oryza sativa); [13]) of the same compound?
**A.** 0

**Q.** And the “Plant response rating, Rice” value (rice (Oryza sativa); [14])?
**A.** 0

**Q.** And the “Plant response rating, Rice” value (rice (Oryza sativa); [15])?
**A.** 0

**Q.** And the “Plant response rating, Rice” value (rice (Oryza sativa); [16])?
**A.** 0

**Q.** And the “Morningglory plant response rating” value ([2]; postemergence, 0-100 scale)?
**A.** 0

**Q.** And the “Plant response rating, Morningglory” value [2, 17]?
**A.** 0

**Q.** And the “Plant response rating, Morningglory” value [2, 18]?
**A.** 0

**Q.** And the “Plant response rating, Morningglory” value [2, 19]?
**A.** 0

**Q.** What about the “Plant response rating, Morningglory” value [2, 20] of the same compound?
**A.** 0

**Q.** What about the “Plant response rating, Morningglory” value [2, 21] of the same compound?
**A.** 0

**Q.** What about the “Plant response rating, Morningglory” value [2, 22] of the same compound?
**A.** 0

**Q.** What about the “Morningglory plant response rating” value ([2]; Preemergence, scale 0 to 100) of the same compound?
**A.** 0

**Q.** What about the “Ragweed plant response rating” value ([3]; postemergence, 0-100 scale) of the same compound?
**A.** 0

**Q.** What about the “Plant response rating, Ragweed” value [3, 17] of the same compound?
**A.** 0

**Q.** What about the “Plant response rating, Ragweed” value [3, 18] of the same compound?
**A.** 0

**Q.** And the “Plant response rating, Ragweed” value [3, 19]?
**A.** 0

**Q.** And the “Plant response rating, Ragweed” value [3, 20]?
**A.** 0

**Q.** And the “Plant response rating, Ragweed” value [3, 21]?
**A.** 0

**Q.** What about the “Plant response rating, Ragweed” value [3, 22] of the same compound?
**A.** 0

**Q.** And the “Ragweed plant response rating” value ([3]; Preemergence, scale 0 to 100)?
**A.** 0

**Q.** What about the “Oat, Wild plant response rating” value (wild oat (Avena fatua); postemergence, 0-100 scale) of the same compound?
**A.** 80

**Q.** And the “Plant response rating, Oat, Wild” value (wild oat (Avena fatua); [17])?
**A.** 95

**Q.** What about the “Plant response rating, Oat, Wild” value (wild oat (Avena fatua); [18]) of the same compound?
**A.** 98

**Q.** And the “Plant response rating, Oat, Wild” value (wild oat (Avena fatua); [19])?
**A.** 100

**Q.** What about the “Plant response rating, Oat, Wild” value (wild oat (Avena fatua); [20]) of the same compound?
**A.** 5

**Q.** And the “Plant response rating, Oat, Wild” value (wild oat (Avena fatua); [21])?
**A.** 80

**Q.** What about the “Plant response rating, Oat, Wild” value (wild oat (Avena fatua); [22]) of the same compound?
**A.** 85

**Q.** And the “Oat, Wild plant response rating” value (wild oat (Avena fatua); Preemergence, scale 0 to 100)?
**A.** 0

**Q.** What about the “Plant response rating, Galium” value [4, 23] of the same compound?
**A.** 0

**Q.** And the “Plant response rating, Galium” value ([4]; 31 g ai/ha, 0 to 100 scale, 0 no effect, 100 complete control)?
**A.** 0

**Q.** What about the “Plant response rating, Sunflower” value [5, 23] of the same compound?
**A.** 0

**Q.** And the “Plant response rating, Sunflower” value [5, 24]?
**A.** 0

**Q.** And the “Plant response rating, Sunflower” value ([5]; 62 g ai/ha, scale 0 to 100)?
**A.** 0

**Q.** And the “Sunflower plant response rating” value ([5]; 8 g ai/ha, scale 0 to 100)?
**A.** 0

**Q.** What about the “Plant response rating, Nightshade, E. B.” value [6, 23] of the same compound?
**A.** 0

**Q.** And the “Plant response rating, Nightshade, E. B.” value [6, 24]?
**A.** 0

**Q.** What about the “Plant response rating, Nightshade, E. B.” value ([6]; 62 g ai/ha, scale 0 to 100) of the same compound?
**A.** 20

**Q.** What about the “Nightshade, E. B. plant response rating” value ([6]; 8 g ai/ha, scale 0 to 100) of the same compound?
**A.** 0

**Q.** And the “Ryegrass, Italian plant response rating” value ([7]; postemergence, 0-100 scale)?
**A.** 40

**Q.** What about the “Plant response rating, Ryegrass, Italian” value [7, 17] of the same compound?
**A.** 90

**Q.** What about the “Plant response rating, Ryegrass, Italian” value [7, 18] of the same compound?
**A.** 100

**Q.** What about the “Plant response rating, Ryegrass, Italian” value [7, 19] of the same compound?
**A.** 100

**Q.** What about the “Plant response rating, Ryegrass, Italian” value [7, 20] of the same compound?
**A.** 85

**Q.** What about the “Plant response rating, Ryegrass, Italian” value [7, 21] of the same compound?
**A.** 100

**Q.** And the “Plant response rating, Ryegrass, Italian” value [7, 22]?
**A.** 100

**Q.** What about the “Ryegrass, Italian plant response rating” value ([7]; Preemergence, scale 0 to 100) of the same compound?
**A.** 85

**Q.** And the “Pigweed plant response rating” value ([8]; postemergence, 0-100 scale)?
**A.** 0

**Q.** And the “Plant response rating, Pigweed” value [8, 17]?
**A.** 0

**Q.** What about the “Plant response rating, Pigweed” value [8, 18] of the same compound?
**A.** 0

**Q.** What about the “Plant response rating, Pigweed” value [8, 19] of the same compound?
**A.** 0

**Q.** And the “Plant response rating, Pigweed” value [8, 20]?
**A.** 0

**Q.** What about the “Plant response rating, Pigweed” value [8, 21] of the same compound?
**A.** 0

**Q.** And the “Plant response rating, Pigweed” value [8, 22]?
**A.** 0

**Q.** And the “Pigweed plant response rating” value ([8]; Preemergence, scale 0 to 100)?
**A.** 0

**Q.** And the “Johnsongrass plant response rating” value ([9]; postemergence, 0-100 scale)?
**A.** 65

**Q.** And the “Plant response rating, Johnsongrass” value [9, 17]?
**A.** 75

**Q.** And the “Plant response rating, Johnsongrass” value [9, 18]?
**A.** 100

**Q.** And the “Plant response rating, Johnsongrass” value [9, 19]?
**A.** 100

**Q.** What about the “Plant response rating, Johnsongrass” value [9, 20] of the same compound?
**A.** 60

**Q.** What about the “Plant response rating, Johnsongrass” value [9, 25] of the same compound?
**A.** 75

**Q.** And the “Plant response rating, Johnsongrass” value [9, 22]?
**A.** 80

**Q.** What about the “Johnsongrass plant response rating” value ([9]; Preemergence, scale 0 to 100) of the same compound?
**A.** 40

**Q.** And the “Blackgrass plant response rating” value ([10]; postemergence, 0-100 scale)?
**A.** 40

**Q.** And the “Plant response rating, Blackgrass” value [10, 17]?
**A.** 85

**Q.** What about the “Plant response rating, Blackgrass” value [10, 18] of the same compound?
**A.** 85

**Q.** And the “Plant response rating, Blackgrass” value [10, 19]?
**A.** 95

**Q.** And the “Plant response rating, Blackgrass” value [10, 20]?
**A.** 90

**Q.** And the “Plant response rating, Blackgrass” value [10, 25]?
**A.** 90

**Q.** And the “Plant response rating, Blackgrass” value [10, 22]?
**A.** 100

**Q.** What about the “Blackgrass plant response rating” value ([10]; Preemergence, scale 0 to 100) of the same compound?
**A.** 80

**Q.** What about the “Crabgrass, Large plant response rating” value ([11]; postemergence, 0-100 scale) of the same compound?
**A.** 70

**Q.** What about the “Plant response rating, Crabgrass, Large” value [11, 17] of the same compound?
**A.** 85

**Q.** And the “Plant response rating, Crabgrass, Large” value [11, 18]?
**A.** 90

**Q.** And the “Plant response rating, Crabgrass, Large” value [11, 19]?
**A.** 100

**Q.** What about the “Plant response rating, Crabgrass, Large” value [11, 20] of the same compound?
**A.** 0

**Q.** What about the “Plant response rating, Crabgrass, Large” value [11, 25] of the same compound?
**A.** 0

**Q.** What about the “Plant response rating, Crabgrass, Large” value [11, 22] of the same compound?
**A.** 0

**Q.** What about the “Crabgrass, Large plant response rating” value ([11]; Preemergence, scale 0 to 100) of the same compound?
**A.** 0

**Q.** What about the “Bromegrass, Downy plant response rating” value ([12]; postemergence, 0-100 scale) of the same compound?
**A.** 5

**Q.** What about the “Plant response rating, Bromegrass, Downy” value [12, 17] of the same compound?
**A.** 50

**Q.** What about the “Plant response rating, Bromegrass, Downy” value [12, 18] of the same compound?
**A.** 60

**Q.** And the “Plant response rating, Bromegrass, Downy” value [12, 19]?
**A.** 90

**Q.** What about the “Plant response rating, Bromegrass, Downy” value [12, 20] of the same compound?
**A.** 0

**Q.** What about the “Plant response rating, Bromegrass, Downy” value [12, 25] of the same compound?
**A.** 70

**Q.** What about the “Plant response rating, Bromegrass, Downy” value [12, 22] of the same compound?
**A.** 80

**Q.** And the “Bromegrass, Downy plant response rating” value ([12]; Preemergence, scale 0 to 100)?
**A.** 0
